Measurements as given in patent US20230286970A1, “NOVEL OXADIAZOLE-BASED SELECTIVE HDAC6 INHIBITORS” (ITALFARMACO S.P.A., priority 2020, published 2023).

Tests used:
recombinant human HDAC6 = recombinant human HDAC6 (Homo sapiens (Human), UniProt Q9UBN7); experiment: Enzymatic screening, HDAC6 inhibition (fluorogenic FdL_G substrate); assay type: biochemical
Protocol: (§1) For each test compound, 100× concentrated DMSO solutions at 8 doses were prepared and then diluted in assay buffer (25 mM Tris-HCl, pH 8, 130 mM NaCl, 0.05% Tween-20, 10% Glycerol) to obtain 5× concentrated solutions in relation to the final concentrations (typical final concentration range—6.4-200000 nM or 0.18-50000 nM, final DMSO content—1%). Then 10 μL solution of each test compound concentration were placed on a 96-well plate in triplicate and 15 μL of 3.33× concentrated enzyme solution in the assay buffer containing 3.33× concentrated BSA (final BSA concentration—2 mg/mL for HDAC4, HDAC5 and HDAC9 or 1 mg/mL for other isoforms) and in the case of HDAC6-3.33× concentrated TCEP (final TCEP concentration—200 μM) were added to each well. After a period of preincubation (incubation times and temperatures vary for different isoforms and are shown in table 1) 25 μL of solution containing the substrate were added. As substrate, FLUOR DE LYS® deacetylase substrate (Enzo Life Sciences, cat: BML-KI104, FdL), FLUOR DE LYS®-Green substrate (Enzo Life Sciences, cat: BML-KI572, FdL_G) or Boc-Lys(Tfa)-AMC (Bachem, cat: 4060676.005, Tfal)—2× concentrated solution in assay buffer were used. Following a reaction period (reaction times and temperatures vary for different isoforms and are reported in Table 1), 50 μL of the development solution consisting of concentrate FLUOR DE LYS® developer I (Enzo Life Sciences, ca: BML-KI105), diluted 200 times in buffer (50 mM Tris-HCl, pH 8, 137 mM NaCl, 2.7 mM KCl, 1 mM MgCl2) plus 2 μM TSA was added and, after 25 minutes at room temperature in the dark, using the Victor 1420 Multilabel Counter Perkin Elmer Wallac instrument, the fluorescence reading was carried out.

recombinant human HDAC1 = recombinant human HDAC1 (Homo sapiens (Human), UniProt Q13547); experiment: Enzymatic screening, HDAC1 inhibition (fluorogenic FdL_G substrate); assay type: biochemical
Protocol: as §1

Chain of recombinant human HDAC1 (Q13547 whole entry): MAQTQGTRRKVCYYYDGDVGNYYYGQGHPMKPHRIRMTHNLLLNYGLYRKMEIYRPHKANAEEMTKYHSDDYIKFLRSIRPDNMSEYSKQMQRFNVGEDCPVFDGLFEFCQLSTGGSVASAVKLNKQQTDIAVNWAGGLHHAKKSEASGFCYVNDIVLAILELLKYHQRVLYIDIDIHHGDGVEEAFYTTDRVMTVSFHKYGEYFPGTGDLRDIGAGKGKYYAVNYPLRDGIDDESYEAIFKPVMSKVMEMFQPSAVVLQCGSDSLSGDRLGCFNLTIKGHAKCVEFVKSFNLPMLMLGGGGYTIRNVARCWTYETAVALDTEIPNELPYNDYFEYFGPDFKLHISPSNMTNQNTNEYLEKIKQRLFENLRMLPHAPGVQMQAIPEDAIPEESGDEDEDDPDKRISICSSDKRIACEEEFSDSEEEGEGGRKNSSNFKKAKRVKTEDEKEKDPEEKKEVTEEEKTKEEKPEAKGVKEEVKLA
Chain of recombinant human HDAC6 (Q9UBN7 whole entry, canonical isoform): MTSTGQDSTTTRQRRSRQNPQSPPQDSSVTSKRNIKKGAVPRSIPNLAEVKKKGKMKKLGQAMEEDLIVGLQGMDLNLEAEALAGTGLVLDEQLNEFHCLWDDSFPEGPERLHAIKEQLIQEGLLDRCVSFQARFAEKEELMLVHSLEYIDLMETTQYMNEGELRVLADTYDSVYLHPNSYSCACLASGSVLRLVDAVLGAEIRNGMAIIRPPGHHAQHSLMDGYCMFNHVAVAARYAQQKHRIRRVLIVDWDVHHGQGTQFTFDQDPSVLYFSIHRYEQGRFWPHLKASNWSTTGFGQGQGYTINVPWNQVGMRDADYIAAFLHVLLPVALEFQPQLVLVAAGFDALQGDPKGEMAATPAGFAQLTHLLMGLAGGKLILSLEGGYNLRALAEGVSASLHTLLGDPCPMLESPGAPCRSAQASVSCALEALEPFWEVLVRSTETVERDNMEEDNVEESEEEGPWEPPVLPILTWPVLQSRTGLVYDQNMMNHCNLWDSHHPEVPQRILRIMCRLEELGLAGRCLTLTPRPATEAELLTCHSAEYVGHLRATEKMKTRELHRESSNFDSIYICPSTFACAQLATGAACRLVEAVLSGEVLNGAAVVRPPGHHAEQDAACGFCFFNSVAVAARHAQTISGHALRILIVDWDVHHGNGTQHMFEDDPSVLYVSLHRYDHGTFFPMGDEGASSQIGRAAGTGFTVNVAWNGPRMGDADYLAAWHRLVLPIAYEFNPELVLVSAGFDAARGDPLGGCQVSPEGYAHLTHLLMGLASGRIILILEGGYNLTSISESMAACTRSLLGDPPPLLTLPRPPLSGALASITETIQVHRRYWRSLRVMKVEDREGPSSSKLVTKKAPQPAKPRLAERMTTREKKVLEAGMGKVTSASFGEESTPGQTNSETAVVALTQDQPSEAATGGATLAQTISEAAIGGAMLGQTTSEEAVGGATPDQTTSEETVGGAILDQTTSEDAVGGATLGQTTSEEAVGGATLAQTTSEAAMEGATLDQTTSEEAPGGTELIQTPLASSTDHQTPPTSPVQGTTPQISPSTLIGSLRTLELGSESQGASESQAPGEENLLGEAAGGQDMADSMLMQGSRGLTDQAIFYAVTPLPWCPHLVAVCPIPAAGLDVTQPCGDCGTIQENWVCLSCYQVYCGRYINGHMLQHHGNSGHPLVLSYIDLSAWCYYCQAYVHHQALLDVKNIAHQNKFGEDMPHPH

| SMILES | IC50 (recombinant human HDAC6) [µM] | IC50 (recombinant human HDAC1) [µM] |
| --- | --- | --- |
| O=C(Nc1cccc(-c2nc(Cc3c(F)cc(-c4nnc(C(F)F)o4)cc3F)no2)c1)N1CCOCC1 [Compd. 145, N-(3-(3-(4-(5-(difluoromethyl)-1,3,4-oxadiazol-2-yl)-2,6-difluorobenzyl)-1,2,4-oxadiazol-5-yl)phenyl)morpholine-4-carboxamide] | 0.061 | > 200 |
| COc1ncc(NCc2ccc(-c3cn(Cc4c(F)cc(-c5nnc(C(F)F)o5)cc4F)nn3)cc2)cc1C(N)=O [Compd. 154, 5-((4-(1-(4-(5-(difluoromethyl)-1,3,4-oxadiazol-2-yl)-2,6-difluorobenzyl)-1H-1,2,3-triazol-4-yl)benzyl)amino)-2-methoxynicotinamide] | 0.067 | > 200 |
| CC(C)(C)OC(=O)NCC(=O)Nc1cccc(-c2cn(Cc3c(F)cc(-c4nnc(C(F)F)o4)cc3F)nn2)c1 [Compd. 172, tert-butyl (2-((3-(1-(4-(5-(difluoromethyl)-1,3,4-oxadiazol-2-yl)-2,6-difluorobenzyl)-1H-1,2,3-triazol-4-yl)phenyl)amino)-2-oxoethyl)carbamate] | 0.086 | > 200 |
| Nc1ccc(-c2cc(Cc3ccc(-c4nnc(C(F)F)o4)cc3)on2)cn1 [Compd. 202, 5-(5-(4-(5-(difluoromethyl)-1,3,4-oxadiazol-2-yl)benzyl)isoxazol-3-yl)pyridin-2-amine] | 0.116 | > 200 |
| NC(=O)c1cccc(-c2noc(Cc3ccc(-c4nnc(C(F)F)o4)cc3)n2)c1 [Compd. 226, 3-(5-(4-(5-(difluoromethyl)-1,3,4-oxadiazol-2-yl)benzyl)-1,2,4-oxadiazol-3-yl)benzamide] | 0.169 | > 200 |
| Nc1ccc(-c2cn(C(Cc3ccc(Cl)cc3)c3ccc(-c4nnc(C(F)F)o4)cc3)nn2)cn1 (stereo not drawn) [Compd. 231, 5-(1-(2-(4-chlorophenyl)-1-(4-(5-(difluoromethyl)-1,3,4-oxadiazol-2-yl)phenyl)ethyl)-1H-1,2,3-triazol-4-yl)pyridin-2-amine] | 0.197 | > 200 |
| CN1CC(=O)Nc2cc(-c3cn(Cc4c(F)cc(-c5nnc(C(F)F)o5)cc4F)nn3)ccc2C1 [Compd. 237, 8-(1-(4-(5-(difluoromethyl)-1,3,4-oxadiazol-2-yl)-2,6-difluorobenzyl)-1H-1,2,3-triazol-4-yl)-4-methyl-1,3,4,5-tetrahydro-2H-benzo[e][1,4]diazepin-2-one] | 0.21 | > 200 |
| FC(F)c1nnc(-c2ccc(Cc3nnc(-c4ccccc4)s3)cc2)o1 [Compd. 238, 2-(difluoromethyl)-5-(4-((5-phenyl-1,3,4-thiadiazol-2-yl)methyl)phenyl)-1,3,4-oxadiazole] | 0.211 | > 200 |
| Nc1ccc(-c2noc(C(F)(F)c3ccc(-c4nnc(C(F)F)o4)cc3)n2)cn1 [Compd. 243, 5-(5-((4-(5-(difluoromethyl)-1,3,4-oxadiazol-2-yl)phenyl)difluoromethyl)-1,2,4-oxadiazol-3-yl)pyridin-2-amine] | 0.234 | > 200 |
| O=C1NCc2ccc(-c3cn(Cc4ccc(-c5nnc(C(F)F)o5)cn4)cn3)cc21 [Compd. 292, 6-(1-((5-(5-(difluoromethyl)-1,3,4-oxadiazol-2-yl)pyridin-2-yl)methyl)-1H-imidazol-4-yl)isoindolin-1-one] | 0.03 | > 200 |
| CNC(=O)Nc1ccc(-c2nnc(Cc3ccc(-c4nnc(C(F)F)o4)cc3)o2)cn1 [compd. 170, 1-(5-(5-(4-(5-(difluoromethyl)-1,3,4-oxadiazol-2-yl)benzyl)-1,3,4-oxadiazol-2-yl)pyridin-2-yl)-3-methylurea] | 0.081 | > 200 |
| FC(F)c1nnc(-c2ccc(Cn3cc(-c4ccc5nc(N6CCCC6)[nH]c5c4)nn3)cc2)o1 [compd. 190, 2-(difluoromethyl)-5-(4-((4-(2-(pyrrolidin-1-yl)-1H-benzo[d]imidazol-6-yl)-1H-1,2,3-triazol-1-yl)methyl)phenyl)-1,3,4-oxadiazole] | 0.099 | > 200 |
| Nc1cccc(-c2cn(Cc3ccc(-c4nnc(C(F)F)o4)cc3)cn2)c1 [compd. 197, 3-(1-(4-(5-(difluoromethyl)-1,3,4-oxadiazol-2-yl)benzyl)-1H-imidazol-4-yl)aniline] | 0.107 | > 200 |
| FC(F)c1nnc(-c2ccc(Cn3nnc(-c4cccc(-c5cnc(N6CCOCC6)s5)c4)n3)cc2)o1 [compd. 253, 4-(5-(3-(2-(4-(5-(difluoromethyl)-1,3,4-oxadiazol-2-yl)benzyl)-2H-tetrazol-5-yl)phenyl)thiazol-2-yl)morpholine] | 0.352 | > 200 |
| FC(F)c1nnc(-c2ccc(Cn3nnc(-c4cccs4)n3)cc2)o1 [compd. 261, 2-(difluoromethyl)-5-(4-((5-(thiophen-2-yl)-2H-tetrazol-2-yl)methyl)phenyl)-1,3,4-oxadiazole] | 0.181 | > 200 |
| O=C(Nc1cccc(-c2cn(Cc3ccc(-c4nnc(C(F)F)o4)cc3)cn2)c1)N1CCOCC1 [compd. 267, N-(3-(1-(4-(5-(difluoromethyl)-1,3,4-oxadiazol-2-yl)benzyl)-1H-imidazol-4-yl)phenyl)morpholine-4-carboxamide] | 0.085 | > 200 |
| NC(=O)c1cccc(-c2cn(Cc3ccc(-c4nnc(C(F)F)o4)cn3)cn2)c1 [compd. 305, 3-[1-[[5-[5-(difluoromethyl)-1,3,4-oxadiazol-2-yl]pyridin-2-yl]methyl]imidazol-4-yl]benzamide] | 0.023 | > 1000 |
| Nc1nc2cc(-c3cn(Cc4ccc(-c5nnc(C(F)F)o5)cc4)cn3)ccc2o1 [compd. 309, 5-[1-[[4-[5-(difluoromethyl)-1,3,4-oxadiazol-2-yl]phenyl]methyl]imidazol-4-yl]-1,3-benzoxazol-2-amine] | 0.069 | > 1000 |
| Nc1nc2ccc(-c3cc(Cc4ccc(-c5nnc(C(F)F)o5)cc4)on3)cc2s1 [compd. 366, 6-[5-[[4-[5-(difluoromethyl)-1,3,4-oxadiazol-2-yl]phenyl]methyl]-1,2-oxazol-3-yl]-1,3-benzothiazol-2-amine] | 0.297 | > 1000 |

The next lines start with the values.

| IC50 (recombinant human HDAC6) [µM] | IC50 (recombinant human HDAC1) [µM] | SMILES |
| --- | --- | --- |
| 0.082 | > 200 | C[C@@H](c1ccc(-c2nnc(C(F)F)o2)cn1)n1cc(-c2ccc(N)nc2)nn1 [Compd. 171, (S)-5-(1-(1-(5-(5-(difluoromethyl)-1,3,4-oxadiazol-2-yl)pyridin-2-yl)ethyl)-1H-1,2,3-triazol-4-yl)pyridin-2-amine] |
| 0.252 | > 200 | Nc1ccc(-c2cn(C(CC3CCC3)c3ccc(-c4nnc(C(F)F)o4)cc3)nn2)cn1 (stereo not drawn) [Compd. 242, 5-(1-(2-cyclobutyl-1-(4-(5-(difluoromethyl)-1,3,4-oxadiazol-2-yl)phenyl)ethyl)-1H-1,2,3-triazol-4-yl)pyridin-2-amine] |
| 0.031 | > 200 | CS(=O)(=O)NCCC(c1ccc(-c2nnc(C(F)F)o2)cn1)n1cc(-c2ccc(N)nc2)nn1 (stereo not drawn) [Compd. 293, N-(3-(4-(6-aminopyridin-3-yl)-1H-1,2,3-triazol-1-yl)-3-(5-(5-(difluoromethyl)-1,3,4-oxadiazol-2-yl)pyridin-2-yl)propyl)methanesulfonamide] |
| 0.064 | > 200 | Nc1ccc(-c2cn(C(CN3CCCC3)c3ccc(-c4nnc(C(F)F)o4)cn3)nn2)cn1 (stereo not drawn) [Compd. 301, 5-(1-(1-(5-(5-(difluoromethyl)-1,3,4-oxadiazol-2-yl)pyridin-2-yl)-2-(pyrrolidin-1-yl)ethyl)-1H-1,2,3-triazol-4-yl)pyridin-2-amine] |
| 0.007 | > 200 | FC(F)c1nnc(-c2ccc(Cn3cc(-c4ccc(NC5=NCCN5)cc4)nn3)nc2)o1 [compd. 24, N-(4-(1-((5-(5-(difluoromethyl)-1,3,4-oxadiazol-2-yl)pyridin-2-yl)methyl)-1H-1,2,3-triazol-4-yl)phenyl)-4,5-dihydro-1H-imidazol-2-amine] |
| 0.048 | > 200 | Nc1ccc(-c2cn(Cc3ncc(-c4nnc(C(F)F)o4)cn3)nn2)cn1 [compd. 125, 5-(1-((5-(5-(difluoromethyl)-1,3,4-oxadiazol-2-yl)pyrimidin-2-yl)methyl)-1H-1,2,3-triazol-4-yl)pyridin-2-amine] |
| 0.202 | > 200 | FC(F)c1nnc(-c2ccc(Cn3cc(-c4ccccc4)nn3)cc2)o1 [compd. 234, 2-(difluoromethyl)-5-(4-((4-phenyl-1H-1,2,3-triazol-1-yl)methyl)phenyl)-1,3,4-oxadiazole] |
| 0.032 | > 200 | Nc1ccc(-c2cn(C(CCNC(=O)C(F)F)c3ccc(-c4nnc(C(F)F)o4)cn3)nn2)cn1 (stereo not drawn) [compd. 295, N-(3-(4-(6-aminopyridin-3-yl)-1H-1,2,3-triazol-1-yl)-3-(5-(5-(difluoromethyl)-1,3,4-oxadiazol-2-yl)pyridin-2-yl)propyl)-2,2-difluoroacetamide] |
